The values that follow come from patent publication US20180148418A1, “AMIDO-SUBSTITUTED CYCLOHEXANE DERIVATIVES” (Bayer Pharma Aktiengesellschaft, priority 2015, published 2018).

Assay [1] relates to wildtype Wnt signaling cascade. Briefly: HEK293 TOP assay (Super TopFlash luciferase reporter, Wnt-3a stimulated). The class given is cell-based. To be noted: Homo sapiens, HEK293, 16 h, HEK293 TOP reporter cells, Wnt3a at EC50, 16 hours. Put shortly:
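Compound series (50 μM down to 15 nM, 3.16-fold) diluted from DMSO 50-fold into CAFTY buffer, pH 7.4, 2 mM Ca^2+, 0.01% BSA, applied to Wnt-3a-stimulated HEK293 TopFlash and FOP reporter lines in parallel. Cells seeded 10000/well 24 h before; luciferase signal measured.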
Background: A reporter such as luciferase makes a cellular process visible.

For a further assay, the target named is T1, TNKS1 (Homo sapiens, UniProt O95271).
T1 construct: purchased BPS Bioscience, San Diego, USA 80579 (TNKS1 Histone Ribosylation Assay Kit)
T1 sequence (O95271 1-1327): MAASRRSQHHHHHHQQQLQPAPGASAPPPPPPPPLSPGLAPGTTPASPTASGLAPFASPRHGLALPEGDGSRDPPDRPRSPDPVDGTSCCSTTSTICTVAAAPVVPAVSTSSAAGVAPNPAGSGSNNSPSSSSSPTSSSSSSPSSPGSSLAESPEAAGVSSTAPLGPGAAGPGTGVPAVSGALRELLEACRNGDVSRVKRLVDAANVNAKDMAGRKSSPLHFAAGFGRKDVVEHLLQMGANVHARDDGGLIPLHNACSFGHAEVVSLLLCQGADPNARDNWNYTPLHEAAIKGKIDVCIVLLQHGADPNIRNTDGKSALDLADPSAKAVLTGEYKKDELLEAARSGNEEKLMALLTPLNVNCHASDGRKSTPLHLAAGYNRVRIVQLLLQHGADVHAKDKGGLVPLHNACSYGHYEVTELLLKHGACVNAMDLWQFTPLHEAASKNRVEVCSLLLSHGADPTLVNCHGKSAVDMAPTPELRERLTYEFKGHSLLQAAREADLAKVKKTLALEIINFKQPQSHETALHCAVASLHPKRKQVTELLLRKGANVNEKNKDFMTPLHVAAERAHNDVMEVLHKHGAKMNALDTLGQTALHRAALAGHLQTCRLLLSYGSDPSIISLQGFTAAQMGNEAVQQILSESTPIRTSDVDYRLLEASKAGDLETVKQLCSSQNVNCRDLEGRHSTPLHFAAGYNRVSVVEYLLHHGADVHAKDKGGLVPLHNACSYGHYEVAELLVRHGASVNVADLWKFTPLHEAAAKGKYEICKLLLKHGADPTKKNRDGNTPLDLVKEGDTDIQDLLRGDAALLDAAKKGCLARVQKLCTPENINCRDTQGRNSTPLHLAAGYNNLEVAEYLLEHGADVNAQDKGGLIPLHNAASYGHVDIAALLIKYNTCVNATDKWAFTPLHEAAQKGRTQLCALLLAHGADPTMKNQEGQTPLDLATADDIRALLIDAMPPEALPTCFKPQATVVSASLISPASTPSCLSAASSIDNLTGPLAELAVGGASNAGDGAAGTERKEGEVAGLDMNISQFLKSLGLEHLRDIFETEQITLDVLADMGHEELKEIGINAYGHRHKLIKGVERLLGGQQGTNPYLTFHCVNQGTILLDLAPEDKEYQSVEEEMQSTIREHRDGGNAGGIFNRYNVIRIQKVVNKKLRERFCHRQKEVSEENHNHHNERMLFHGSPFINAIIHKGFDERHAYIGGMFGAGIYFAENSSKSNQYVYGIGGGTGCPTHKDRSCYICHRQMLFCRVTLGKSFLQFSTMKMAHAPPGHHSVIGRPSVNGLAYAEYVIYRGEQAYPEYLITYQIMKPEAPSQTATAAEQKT
As to the kind of experiment: TNKS1 Assay B (auto-parsylation, [3H]-NAD+ SPA). The class given is biochemical. To be noted: 6 nM TNKS1, auto-parsylation, over night at room temperature.

The IC50 is the concentration that gives 50% inhibition. High values mean weaker potency in that assay, low ones greater potency in that assay. For the compound `Cc1ccccc1N(C)C(=O)[C@H]1CC[C@H](NC(=O)c2cnn3cccnc23)CC1` [Example 178, N-{trans-4-[methyl(2-methylphenyl)carbamoyl]cyclohexyl}pyrazolo[1,5-a]pyrimidine-3-carboxamide], the IC50 is 560 nM in assay [1] and 330 nM on TNKS1.

In the case of `C[C@]1(C(=O)Nc2ccc(F)cc2Cl)CC[C@H](NC(=O)c2cnn3cccnc23)CC1` [Example 179, N-{trans-4-[(2-chloro-4-fluorophenyl)carbamoyl]-4-methylcyclohexyl}pyrazolo[1,5-a]pyrimidine-3-carboxamide], the values for the IC50 (in assay [1]; against TNKS1) were 410 nM and 970 nM, respectively.

`C[C@]1(C(=O)Nc2ccc(F)cc2Cl)CC[C@@H](NC(=O)c2cnn3cccnc23)CC1` [Example 180, N-{cis-4-[(2-chloro-4-fluorophenyl)carbamoyl]-4-methylcyclohexyl}pyrazolo[1,5-a]pyrimidine-3-carboxamide]: the results for the IC50 (in assay [1]; on TNKS1) were 7600 nM and above 10000 nM, respectively.

Regarding `CNC(=O)c1[nH]cnc1C(=O)N[C@H]1CC[C@@](C)(C(=O)Nc2ccc(F)cc2Cl)CC1` [Example 181, N^4-{cis-4-[(2-chloro-4-fluorophenyl)carbamoyl]-4-methylcyclohexyl}-N^5-methyl-1H-imidazole-4,5-dicarboxamide], the IC50 in assay [1] was 9600 nM; against TNKS1, above 10000 nM.

In the case of `CNC(=O)c1nc[nH]c1C(=O)N[C@H]1CC[C@]2(CCN(c3ccc(F)cc3Cl)C2=O)CC1` [Example 182, N^5-[(cis)-2-(2-chloro-4-fluorophenyl)-1-oxo-2-azaspiro[4.5]dec-8-yl]-N^4-methyl-1H-imidazole-4,5-dicarboxamide], the IC50 is 190 nM in assay [1] and 2200 nM against TNKS1.

`CC1CN(C(=O)c2nc[nH]c2C(=O)N[C@H]2CC[C@@]3(CCN(c4ccc(F)cc4Cl)C3=O)CC2)CCS(=O)(=O)C1` (stereo partly drawn) [Example 183, N-[(trans)-2-(2-chloro-4-fluorophenyl)-1-oxo-2-azaspiro[4.5]dec-8-yl]-4-[(6-methyl-1,1-dioxido-1,4-thiazepan-4-yl)carbonyl]-1H-imidazole-5-carboxamide]: the IC50 in assay [1] stood at 210 nM; at TNKS1 it was 700 nM.

As to `CN1CC2(CCN(C(=O)c3nc[nH]c3C(=O)N[C@H]3CC[C@@]4(CCN(c5ccc(F)cc5Cl)C4=O)CC3)C2)C1` [Example 184, N-[(trans)-2-(2-chloro-4-fluorophenyl)-1-oxo-2-azaspiro[4.5]dec-8-yl]-4-[(2-methyl-2,6-diazaspiro[3.4]oct-6-yl)carbonyl]-1H-imidazole-5-carboxamide], the half-maximal inhibitory concentration (IC50) came to 21 nM in assay [1] and 10 nM at TNKS1.

As to `CN1CC2(C1)CN(C(=O)c1nc[nH]c1C(=O)N[C@H]1CC[C@@]3(CCN(c4ccc(F)cc4Cl)C3=O)CC1)C2` [Example 185, N-[(trans)-2-(2-chloro-4-fluorophenyl)-1-oxo-2-azaspiro[4.5]dec-8-yl]-4-[(6-methyl-2,6-diazaspiro[3.3]hept-2-yl)carbonyl]-1H-imidazole-5-carboxamide], the IC50 came out at 6.1 nM in assay [1] and 8.7 nM on TNKS1.

Regarding `NC(=O)c1nc[nH]c1C(=O)N[C@H]1CC[C@@]2(CCN(c3ccc(F)cc3Cl)C2=O)CC1` [Example 186, N^5-[(trans)-2-(2-chloro-4-fluorophenyl)-1-oxo-2-azaspiro[4.5]dec-8-yl]-1H-imidazole-4,5-dicarboxamide], the IC50 in assay [1] was found to be 2.1 nM; against TNKS1 it was 18 nM.

With `CN1CC(NC(=O)c2nc[nH]c2C(=O)N[C@H]2CC[C@@]3(CCN(c4ccc(F)cc4Cl)C3=O)CC2)C1` [Example 187, N^5-[(trans)-2-(2-chloro-4-fluorophenyl)-1-oxo-2-azaspiro[4.5]dec-8-yl]-N^4-(1-methylazetidin-3-yl)-1H-imidazole-4,5-dicarboxamide], the results for the IC50 (in assay [1]; against TNKS1) were 5.9 nM and 12 nM, respectively.

In the case of `O=C(N[C@H]1CC[C@@]2(CCN(c3ccc(F)cc3Cl)C2=O)CC1)c1nc[nH]c1C(=O)NCC(F)(F)F` [Example 195, N^4-[(trans)-2-(2-chloro-4-fluorophenyl)-1-oxo-2-azaspiro[4.5]dec-8-yl]-N^5-(2,2,2-trifluoroethyl)-1H-imidazole-4,5-dicarboxamide], the IC50 was determined as 1.3 nM in assay [1] and 11 nM against TNKS1.

With `CNC(=O)c1nc[nH]c1C(=O)N[C@H]1CC[C@@]2(CCN(c3cc(F)c(F)cc3Cl)C2=O)CC1` [Example 196, N^5-[(trans)-2-(2-chloro-4,5-difluorophenyl)-1-oxo-2-azaspiro[4.5]dec-8-yl]-N^4-methyl-1H-imidazole-4,5-dicarboxamide], the IC50 is 0.74 nM in assay [1] and 6.7 nM at TNKS1.

Consider `CCNC(=O)c1nc[nH]c1C(=O)N[C@H]1CC[C@@]2(CCN(c3cc(F)c(F)cc3Cl)C2=O)CC1` [Example 197, N^5-[(trans)-2-(2-chloro-4,5-difluorophenyl)-1-oxo-2-azaspiro[4.5]dec-8-yl]-N^4-ethyl-1H-imidazole-4,5-dicarboxamide], for which the IC50 in assay [1] is 0.74 nM; against TNKS1, 4.5 nM.

In the case of `CC(C)NC(=O)c1nc[nH]c1C(=O)N[C@H]1CC[C@@]2(CCN(c3cc(F)c(F)cc3Cl)C2=O)CC1` [Example 198, N^5-[(trans)-2-(2-chloro-4,5-difluorophenyl)-1-oxo-2-azaspiro[4.5]dec-8-yl]-N^4-(propan-2-yl)-1H-imidazole-4,5-dicarboxamide], the IC50 in assay [1] turned out to be 1.7 nM; against TNKS1, 8 nM.

As for `O=C(NC1CC1)c1nc[nH]c1C(=O)N[C@H]1CC[C@@]2(CCN(c3cc(F)c(F)cc3Cl)C2=O)CC1` [Example 199, N^5-[(trans)-2-(2-chloro-4,5-difluorophenyl)-1-oxo-2-azaspiro[4.5]dec-8-yl]-N^4-cyclopropyl-1H-imidazole-4,5-dicarboxamide], the IC50 in assay [1] came out at 0.98 nM; at TNKS1 it was 7.5 nM.

On to `O=C(N[C@H]1CC[C@@]2(CCN(c3cc(F)c(F)cc3Cl)C2=O)CC1)c1[nH]cnc1C(=O)N1CC(F)C1` [Example 200, N-[(trans)-2-(2-chloro-4,5-difluorophenyl)-1-oxo-2-azaspiro[4.5]dec-8-yl]-4-[(3-fluoroazetidin-1-yl)carbonyl]-1H-imidazole-5-carboxamide], for which the IC50 was 0.17 nM in assay [1] and 6.9 nM against TNKS1.

Turning to `O=C(NCC(F)(F)F)c1nc[nH]c1C(=O)N[C@H]1CC[C@@]2(CCN(c3cc(F)c(F)cc3Cl)C2=O)CC1` [Example 201, N^5-[(trans)-2-(2-chloro-4,5-difluorophenyl)-1-oxo-2-azaspiro[4.5]dec-8-yl]-N^4-(2,2,2-trifluoroethyl)-1H-imidazole-4,5-dicarboxamide], the IC50 in assay [1] came out at 0.54 nM; against TNKS1, 5.5 nM.

As for `COCCNC(=O)c1nc[nH]c1C(=O)N[C@H]1CC[C@@]2(CCN(c3cc(F)c(F)cc3Cl)C2=O)CC1` [Example 202, N^5-[(trans)-2-(2-chloro-4,5-difluorophenyl)-1-oxo-2-azaspiro[4.5]dec-8-yl]-N^4-(2-methoxyethyl)-1H-imidazole-4,5-dicarboxamide], the IC50 in assay [1] is 0.55 nM; at TNKS1, 7.3 nM.

Take `CNC(=O)c1nc[nH]c1C(=O)N[C@H]1CC[C@H](C(=O)N(C)c2ccccc2C)CC1` [Example 203, N^4-methyl-N^5-{trans-4-[methyl(2-methylphenyl)carbamoyl]cyclohexyl}-1H-imidazole-4,5-dicarboxamide]: the IC50 in assay [1] came out at 25000 nM; on TNKS1, 630 nM.
